According to paper PMC3722118, “Hellebrin and its aglycone form hellebrigenin display similar in vitro growth inhibitory effects in cancer cells and binding profiles to the alpha subunits of the Na^+/K^+-ATPase” (Molecular Cancer, 2013):
Where two headings read alike, the source gives them in different places.

Tests used:
A549 NSCLC cells = assay: MTT colorimetric in vitro growth inhibition assay; assay type: cell-based, human; conditions: read-out: IC50 (nM) A549
Outline: (§1)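 Cells were grown in RPMI with 10% heat-inactivated fetal calf serum, 4 mM glutamine and antibiotics. Growth was measured by MTT reduction to formazan read by spectrophotometry, with treated cell optical density compared to untreated controls. Six replicates per condition.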

HT-29 colon cancer cells = assay: MTT colorimetric in vitro growth inhibition assay; assay type: cell-based, human; conditions: read-out: IC50 (nM) HT-29
Outline: as §1

Hs683 glioma cells = assay: MTT colorimetric in vitro growth inhibition assay; assay type: cell-based, human; conditions: read-out: IC50 (nM) Hs683
Outline: as §1

[1] = test system: MCF-7 breast cancer cells; assay: MTT colorimetric in vitro growth inhibition assay; assay type: cell-based, human; conditions: read-out: IC50 (nM) MCF-7
Outline: as §1

[2] = test system: PC-3 prostate cancer cells; assay: MTT colorimetric in vitro growth inhibition assay; assay type: cell-based, human; conditions: read-out: IC50 (nM) PC-3
Outline: as §1

SKMEL-28 melanoma cells = assay: MTT colorimetric in vitro growth inhibition assay; assay type: cell-based, human; conditions: read-out: IC50 (nM) SKMEL-28
Outline: as §1

T98G glioma cells = assay: MTT colorimetric in vitro growth inhibition assay; assay type: cell-based, human; conditions: read-out: IC50 (nM) T98G
Outline: as §1

U373 glioma cells = assay: MTT colorimetric in vitro growth inhibition assay; assay type: cell-based, human; conditions: read-out: IC50 (nM) U373
Outline: as §1

[3] = target: T1, purified human α1β1 Na+/K+-ATPase (Homo sapiens, UniProt P05023); assay: Inhibition of NaK activity of purified detergent-soluble complex (Pi release); assay type: biochemical; conditions: for selectivity in inhibition of NaK activity of all of the purified complexes: comparison of α1β1, α2β1, α3β1 purified complexes
T1 construct: made in house; host or cells: Pichia pastoris strain SMD1165; detergent-soluble complex purified
Description: The inhibition of NaK activity of the purified detergent-soluble α1β1, α2β1, and α3β1 complexes by cardiotonic steroids and an analysis of the inhibition data (Ki values) were also performed as previously described. The inhibitors were added to the recombinant enzyme (0.08–0.2 μg of protein) in 400 μl of reaction medium containing 130 mM NaCl, 5 mM KCl, 3 mM MgCl2, 25 mM histidine, pH 7.4, 1 mM EGTA, 0.01 mg/ml SOPS, 0.001 mg/ml cholesterol, and 0.005 mg/ml C12 E8 in 48-well plates. The reaction (37°C for 1 h) was started by the addition of 1mM ATP. Pi release was measured with a malachite green dye to detect the phosphor-molybdate (Pi Color Lock, Innova Biosciences). The percent inhibition V /V0 was calculated for each cardiac glycoside concentration, and Ki values were obtained by fitting the data to the function V /V0 = Ki /([CG] + Ki ) (using Kaleidagraph). V0 and V represent the control rate and rate of NaK-ATPase activity at particular concentrations of cardiac glycosides, [CG], respectively.
Average KD or Ki values ± SEM for each isoform were calculated. Statistical significance was calculated by the unpaired Students t-test. P values <0.05 were considered significant.

[4] = test system: HCT-116 p53/wt and HCT-116 p53/ko colon carcinoma cells; assay: MTT viability, p53 wild-type versus knock-out model; assay type: cell-based, human; conditions: 72 hours
Text: (§2) The following human cancer cell lines and their chemoresistant sublines were used in this study: the colon carcinoma cell line HCT-116 p53/wt and the p53 knock-out cell line HCT-116 p53/ko (generously donated by B. Vogelstein, Johns Hopkins University, Baltimore, MD, USA); the epidermal carcinoma-derived cell line KB-3-1 and the ABCB1-overexpressing subline KB-C-1 (generously donated by D.W. Shen, Bethesda, USA); the small cell lung carcinoma cell line GLC-4 and the ABCC1- and LRP-overexpressing subline GLC-4/ADR (from E.G. de Vries, Groningen, Netherlands); the ovarian carcinoma cell line A2780 and the cisplatin resistant subline A2780cis (purchased from Sigma-Aldrich); and the promyelocytic leukemia cell line HL60 and the mitoxantrone resistant subline HL60/mx (generously donated by G. Harker, Salt Lake City, USA). All cell lines were grown in RPMI 1640 supplemented with 10% fetal bovine serum with the exception of the HCT-116 cells, which were grown in McCoy’s medium with 10% serum.
(§3) Figure 4 Impact of different MDR mechanisms on the cytotoxicity of hellebrigenin. […] Viability was determined using a 3-(4,5-dimethythiazol-2-yl)-2,5-diphenyltetrazolium bromide (MTT) colorimetric assay. […]

MDR cancer cell models = assay: MTT viability in several MDR cancer cell models; assay type: cell-based, human; conditions: overexpression of ABC-transporters and/or altered glutathione metabolism, 72 hours
Text: as §2, §3

[5] = three days of culture, * three independent experiments, ** one experiment, six replicates

Work on `C[C@@H]1O[C@@H](O[C@H]2CC[C@]3(C=O)[C@H]4CC[C@]5(C)[C@@H](c6ccc(=O)oc6)CC[C@]5(O)[C@@H]4CC[C@]3(O)C2)[C@H](O)[C@H](O)[C@H]1O[C@@H]1O[C@H](CO)[C@@H](O)[C@H](O)[C@H]1O` [Hellebrin] yielded an IC50 (A549 NSCLC cells; Homo sapiens, A549, 72 h) of 6 ± 1 nM, an IC50 (HT-29 colon cancer cells; Homo sapiens, HT-29, 72 h) of 27 ± 4 nM and an IC50 (Hs683 glioma cells; Homo sapiens, Hs 683, 72 h) of 7 ± 1 nM. It also gave an IC50 ([1]; Homo sapiens, MCF7, 72 h) of 58 ± 12 nM, an IC50 ([2]; Homo sapiens, 72 h) of 11 ± 1 nM and an IC50 (SKMEL-28 melanoma cells; Homo sapiens, SK-MEL-28, 72 h) of 40 ± 5 nM. For the same compound, the IC50 (T98G glioma cells; Homo sapiens, T98G, 72 h) was 30 ± 1 nM, the IC50 (U373 glioma cells; Homo sapiens, U373 MG, 72 h) was 41 ± 2 nM and the Ki [3] was 0.103 ± 0.007 µM. The “selectivity in inhibition of NaK activity of all of the purified complexes” value [3] was “no selectivity”, the “in vitro growth inhibitory activity in p53 wild-type versus p53KO HCT-116 cells” value [4] was “similar” and the “activity in several MDR cancer cell models versus parental cells” value (MDR cancer cell models) was “equally active”.
In the case of `C[C@]12CC[C@H]3[C@@H](CC[C@]4(O)C[C@@H](O)CC[C@]34C=O)[C@@]1(O)CC[C@@H]2c1ccc(=O)oc1` [Hellebrigenin], the IC50 (A549 NSCLC cells; [5]) is reported as 3 ± 1 nM, the IC50 (HT-29 colon cancer cells; [5]) is reported as 9 ± 1 nM and the IC50 (Hs683 glioma cells; [5]) is reported as 6 ± 1 nM. It also gave an IC50 [1, 5] of 42 ± 2 nM, an IC50 [2, 5] of 18 ± 1 nM and an IC50 (SKMEL-28 melanoma cells; [5]) of 28 ± 9 nM. For the same compound, the IC50 (T98G glioma cells; [5]) was 9 ± 1 nM, the IC50 (U373 glioma cells; [5]) was 9 ± 1 nM and the Ki ([3]; 37°C, 1 h, 1 mM ATP, read-out: Ki for inhibition of NaK activity of purified human α1β1) was 0.046 ± 0.006 µM. For the same compound, the “selectivity in inhibition of NaK activity of all of the purified complexes” value [3] was “no selectivity”, the “in vitro growth inhibitory activity in p53 wild-type versus p53KO HCT-116 cells” value [4] was “similar” and the “activity in several MDR cancer cell models versus parental cells” value (MDR cancer cell models) was “equally active”.
